Paper PMC11305846 (ALTEX, 2024)

What was measured:
iPSC-CM = experiment: Ca2+ flux phenotypic assay; conditions: for beat frequency from Ca2+ flux traces: 100 μM, 90 minutes after treatment, vehicle ~30 beats per minute
iPSC-Hep = experiment: High-content imaging phenotypic assay in iPSC-derived hepatocytes, 48 h exposure; assay type: cell-based, human; conditions: 0.1-100 μM, benchmark 1 SD

SMILES | negative chronotropy: effect that reached benchmark response (5% change) (iPSC-CM; 0.1-100 μM, 90 min) | beat frequency from Ca2+ flux traces (iPSC-CM) | QT prolongation: effect that reached benchmark response (5% change) (iPSC-CM; 0.1-100 μM, 90 min) | concentration-response phenotypic effect on cell mean area (iPSC-Hep)
O=S(=O)(O)CCC(F)(F)C(F)(F)C(F)(F)C(F)(F)C(F)(F)C(F)(F)C(F)(F)C(F)(F)F [8:2 FTS, 8:2 Fluorotelomer sulfonic acid] | decreased peak frequency |  |  | 
N.O=C(O)C(F)(F)C(F)(F)C(F)(F)C(F)(F)C(F)(F)C(F)(F)C(F)(F)F [NH4PFOA, Ammonium perfluorooctanoate] | decreased peak frequency |  |  | 
O=S(=O)(O)C(F)(F)C(F)(F)C(F)(F)C(F)(F)F [PFBS, Perfluorobutanesulfonic acid] | decreased peak frequency | 24 beats per minute |  | 
O=S(=O)([O-])C(F)(F)C(F)(F)C(F)(F)C(F)(F)C(F)(F)C(F)(F)C(F)(F)C(F)(F)C(F)(F)C(F)(F)F.[Na+] [PFDS-Na, Sodium perfluorodecanesulfonate] | decreased peak frequency |  | QT prolongation | 
O=C(O)C(F)(F)C(F)(F)OC(F)(F)F [PFMPA, Perfluoro-3-methoxypropanoic acid] | decreased peak frequency |  |  | 
O=C(O)C(F)(F)C(F)(F)C(F)(F)C(F)(F)C(F)(F)C(F)(F)C(F)(F)F [PFOA, Perfluorooctanoic acid] | decreased peak frequency |  |  | increased mean cell area
O=C(O)C(F)(F)C(F)(F)C(F)(F)C(F)(F)C(F)(F)C(F)(F)C(F)(F)C(F)(F)C(F)(F)C(F)(F)C(F)(F)C(F)(F)C(F)(F)F [PFTeDA, Perfluorotetradecanoic acid] | decreased peak frequency |  |  | 
O=C(O)C(F)(F)C(F)(F)C(F)(F)C(F)(F)C(F)(F)C(F)(F)C(F)(F)C(F)(F)C(F)(F)C(F)(F)C(F)(F)C(F)(F)F [PFTiDA, Perfluorotridecanoic acid] | decreased peak frequency | 12 beats per minute |  | 
